Results published in patent US10766869B2, “Triazoles for the treatment of demyelinating dieases” (Vertex Pharmaceuticals Incorporated, priority 2015, dated 2020).

Test system: primary rat mixed cortical cells
Experiment: In vitro myelination assay (MBP positive myelin strands, fold myelin pixels above background)
Format: cell-based
Conditions: Rattus norvegicus, read-out: Fold myelin pixels above background relative to baseline of no added compound; for fold induction at 1 µM: 1.0 μM compound; for fold induction at 10 µM: 10.0 μM compound
Procedure, shortened: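 Myelination read as total MBP-immunopositive strand pixels per well, imaged at 10× after fixation on day 14 and expressed relative to untreated wells, at 1.0 and 10.0 μM. Cells: dissociated postnatal day 1 rat cortex, cultured two weeks with compound, re-dosed at days 6 and 10.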

Question: Which fold induction at 1 µM does the source give for `CCN1CCN(C2CCN(c3cc(C)cc(Nc4ncn(-c5cc(F)cc(F)c5)n4)c3)CC2)CC1` [Compound 1025, 1-(3,5-difluorophenyl)-N-[3-[4-(4-ethylpiperazin-1-yl)-1-piperidyl]-5-methyl-phenyl]-1,2,4-triazol-3-amine] here?
Answer: 1 to 10

Question: And the fold induction at 10 µM?
Answer: 10 to 100

Question: With `Cc1cc(Nc2ncn(-c3cc(F)cc(F)c3)n2)cc(N2CCN(C)C(CCO)C2)c1` (stereo not drawn) [Compound 1026, 2-[4-[3-[[1-(3,5-difluorophenyl)-1,2,4-triazol-3-yl]amino]-5-methyl-phenyl]-1-methyl-piperazin-2-yl]ethanol] as the compound, how does the fold induction at 1 µM read?
Answer: 1 to 10

Question: And the fold induction at 10 µM?
Answer: 1 to 10

Question: How did the fold induction at 1 µM turn out when `Cc1cc(Nc2ncn(-c3cc(F)cc(F)c3)n2)cc(N2CCOC(CN3CCCC3)C2)c1` (stereo not drawn) [Compound 1027, 1-(3,5-difluorophenyl)-N-[3-methyl-5-[2-(pyrrolidin-1-ylmethyl)morpholin-4-yl]phenyl]-1,2,4-triazol-3-amine] was run?
Answer: 1 to 10

Question: And the fold induction at 10 µM?
Answer: ≤ 1

Question: For `COC1(CNc2cc(C)cc(Nc3ncn(-c4cc(F)cc(F)c4)n3)c2)CCC1` [Compound 1029, N1-[1-(3,5-difluorophenyl)-1,2,4-triazol-3-yl]-N3-[(1-methoxycyclobutyl)methyl]-5-methyl-benzene-1,3-diamine], which fold induction at 1 µM is on record?
Answer: 10 to 100

Question: And the fold induction at 10 µM?
Answer: 10 to 100

Question: Which results are given for `COCCC1CN(c2cc(C)cc(Nc3ncn(-c4cc(F)cc(F)c4)n3)c2)CCO1` (stereo not drawn) [Compound 1030, 1-(3,5-difluorophenyl)-N-[3-[2-(2-methoxyethyl)morpholin-4-yl]-5-methyl-phenyl]-1,2,4-triazol-3-amine]?
Answer: fold induction at 1 µM: 10 to 100; fold induction at 10 µM: 1 to 10

Question: For `CC(=O)N1CC(CNc2cc(C)cc(Nc3ncn(-c4cc(F)cc(F)c4)n3)c2)C1` [Compound 1031, 1-[3-[[3-[[1-(3,5-difluorophenyl)-1,2,4-triazol-3-yl]amino]-5-methyl-anilino]methyl]azetidin-1-yl]ethanone], which fold induction at 1 µM is on record?
Answer: 10 to 100

Question: What about the fold induction at 10 µM of the same compound?
Answer: ≤ 1

Question: What does the source list for `[2H]C1([2H])N(c2cc(Nc3ncn(-c4cc(F)cc(F)c4)n3)cc(C(F)(F)F)c2)C([2H])([2H])C([2H])([2H])C([2H])([2H])C1([2H])[2H]` [Compound 1032, N-[3-(2,2,3,3,4,4,5,5,6,6-decadeuterio-1-piperidyl)-5-(trifluoromethyl)phenyl]-1-(3,5-difluorophenyl)-1,2,4-triazol-3-amine]?
Answer: fold induction at 1 µM: 10 to 100; fold induction at 10 µM: 1 to 10

Question: `Cc1cc(Nc2ncn(-c3cc(F)cc(F)c3)n2)cc(N2CCN(CCOCCO)CC2)c1` [Compound 1033, 2-[2-[4-[3-[[1-(3,5-difluorophenyl)-1,2,4-triazol-3-yl]amino]-5-methyl-phenyl]piperazin-1-yl]ethoxy]ethanol] was tested. Which fold induction at 1 µM did it give?
Answer: 1 to 10

Question: And the fold induction at 10 µM?
Answer: ≤ 1

Question: `Cc1cc(Nc2ncn(-c3ccccc3)n2)cc(N2CC3(C2)CN(C(C)C)C3)c1` [Compound 1034, N-[3-(2-isopropyl-2,6-diazaspiro[3.3]heptan-6-yl)-5-methyl-phenyl]-1-phenyl-1,2,4-triazol-3-amine] was tested. Which fold induction at 1 µM did it give?
Answer: 10 to 100

Question: And the fold induction at 10 µM?
Answer: ≤ 1

Question: For `Cc1cc(Nc2ncn(-c3cc(F)cc(F)c3)n2)cc(N2CCOC3(CC3)C2)c1` [Compound 1035, 1-(3,5-difluorophenyl)-N-[3-methyl-5-(4-oxa-7-azaspiro[2.5]octan-7-yl)phenyl]-1,2,4-triazol-3-amine], which fold induction at 1 µM is on record?
Answer: 1 to 10

Question: What about the fold induction at 10 µM of the same compound?
Answer: 1 to 10

Question: How did the fold induction at 1 µM turn out when `Cc1cc(Nc2ncn(-c3cc(F)cc(F)c3)n2)cc(N2CCN(CCO)CC2)c1` [Compound 1036, 2-[4-[3-[[1-(3,5-difluorophenyl)-1,2,4-triazol-3-yl]amino]-5-methyl-phenyl]piperazin-1-yl]ethanol] was run?
Answer: ≤ 1

Question: What about the fold induction at 10 µM of the same compound?
Answer: ≤ 1

Question: Which fold induction at 1 µM does the source give for `Cc1cc(Nc2ncn(-c3cc(F)cc(F)c3)n2)cc(N2CC(S(C)(=O)=O)C2)c1` [Compound 1037, 1-(3,5-difluorophenyl)-N-[3-methyl-5-(3-methylsulfonylazetidin-1-yl)phenyl]-1,2,4-triazol-3-amine] here?
Answer: 10 to 100

Question: And the fold induction at 10 µM?
Answer: ≤ 1
